# Results as given in patent publication US7932283B2, “Fungicide N-cyclopropyl-sulfonylamide derivatives” (Bayer Cropscience AG, priority 2006, dated 2011).
# Assays:
# Podosphaera leucotricha = experiment: In vivo test on Podosphaera leucotricha (apple mildew), preventive spray; settings: 240 h, apple young plants, evaluated 10 days after inoculation, good (at least 70%) to total protection
# Method: In Vivo Test on Podosphaera leucotncha (Apple Mildew) [table] To produce a suitable preparation of active compound, 1 part by weight of active compound is mixed with the stated amounts of solvent and emulsifier, and the concentrate is diluted with water to the desired concentration. Young plants are sprayed with the preparation of active compound at the stated rate of application. After the spray coating has dried on, the plants are inoculated with an aqueous spore suspension of the causal agent of apple mildew (Podosphaera leucobicha). The plants are then placed in a greenhouse at approximately 23° C. and a relative atmospheric humidity of approximately 70%. The test is evaluated 10 days after the inoculation. Under these conditions, good (at least 70%) to total protection is observed at a dose of 100 ppm with the following compounds: 104, 160, 176, 177, 180, 186, 187, 188, 192, 194, 196, 198, 203, 204, 205, 207, 209, 210, 211, 212, 213, 218 and 446.
# [1] = test system: Erysiphe graminis f.sp. horde; experiment: In vivo test on Erysiphe graminis (barley mildew), preventive spray; settings: Blumeria graminis, 168 h, barley young plants, evaluated 7 days after inoculation, good (at least 70%) to total protection
# Method: In Vivo Test on Erysiphe Graminis (Barley Mildew) [table] To produce a suitable preparation of active compound, 1 part by weight of active compound or active compound combination is mixed with the stated amounts of solvent and emulsifier, and the concentrate is diluted with water to the desired concentration. Young plants are sprayed with the preparation of active compound or active compound combination at the stated rate of application. After the spray coating has dried on, the plants are dusted with spores of Erysiphe graminis f.sp. horde. The plants are placed in a greenhouse at a temperature of approximately 20° C. and a relative atmospheric humidity of approximately 80% to promote the development of mildew pustules. The test is evaluated 7 days after the inoculation. Under these conditions, good (at least 70%) to total protection is observed at a dose of 1000 ppm with the following compounds: 104, 160, 177, 178, 186, 192, 194, 203, 204, 205, 207, 210, 212, 213 and 435.
# Pyrenophora teres = experiment: In vivo test on Pyrenophora teres (barley net blotch); settings: 288 h, barley plants (Express variety), grading 12 days after contamination, good (at least 70%) or total protection
# Method: In Vivo Test on Pyrenophore teres (Barley Net Blotch)
# The active ingredients tested are prepared by homogenisation in a mixture of acetone/tween/DMSO, then diluted with water to obtain the desired active material concentration. Barley plants (Express variety) in starter cups, sown on a 50/50 peat soil-pozzolana substrate and grown at 12° C., are treated at the 1-leaf stage (10 cm tall) by spraying with the active ingredient prepared as described above. Plants, used as controls, are treated with the mixture of acetone/tween/DMSO/water not containing the active material.
# After 24 hours, the plants are contaminated by spraying them with an aqueous suspension of Pyrenophora teres spores (12,000 spores per ml). The spores are collected from a 12-day-old culture. The contaminated barley plants are incubated for 24 hours at about 20° C. and at 100% relative humidity, and then for 12 days at 80% relative humidity.
# Puccinia recondita = experiment: In vivo test on Puccinia recondita f. sp. tritici (wheat brown rust); settings: 240 h, wheat plants (Scipion variety), grading 10 days after contamination, good (at least 70%) or total protection
# Method: In vivo Test on Puccinia reconditef. Sp. tritici (Wheat Brown Rust)
# The active ingredients tested are prepared by homogenisation in a mixture of acetone/tween/DMSO, then diluted with water to obtain the desired active material concentration. Wheat plants (Scipion variety) in starter cups, sown on 50/50 peat soil-pozzolana substrate and grown at 12° C., are treated at the 1-leaf stage (10 cm tall) by spraying with the active ingredient prepared as described above. Plants, used as controls, are treated with the mixture of acetone/tween/DMSO/water not containing the active material.
# After 24 hours, the plants are contaminated by spraying the leaves with an aqueous suspension of Puccinia recondita spores (100,000 spores per ml). The spores are collected from a 10-day-old contaminated wheat and are suspended in water containing 2.5 ml/of tween 80 10%. The contaminated wheat plants are incubated for 24 hours at 20° C. and at 100% relative humidity, and then for 10 days at 20° C. and at 70% relative humidity. Grading is carried out 10 days after the contamination, in comparison with the control plants.
# [2] = logP by HPLC on reversed-phase column (C 18), EEC Directive 79/B31 Annex V.A8, methods A and B; type: physicochemical; settings: linear gradient 10% to 90% acetonitrile; for chromatographic logP: reversed-phase HPLC column (C 18)
# Method: Calibration was carried out using unbranched alkan-2-ones (having 3 to 16 carbon atoms) with known logP values (determination of the logP values by the retention times using linear interpolation between two successive alkanones).
# Alternaria solani = experiment: In vivo test on Alternaria solani (tomato leaf spot), preventive spray; settings: 168 h, tomato young plants, evaluated 7 days after inoculation, good (at least 70%) to total protection
# Method: In Vivo Test on Alternaria Solani (Tomato Leaf Spot) [table] To produce a suitable preparation of active compound, 1 part by weight of active compound is mixed with the stated amounts of solvent and emulsifier, and the concentrate is diluted with water to the desired concentration. Young plants are sprayed with the preparation of active compound at the stated rate of application. After the spray coating has dried on, the plants are inoculated with an aqueous spore suspension of Alternaria solani. The plants remain for one day in an incubation cabinet at approximately 20° C. and a relative atmospheric humidity of 100%. Then the plants are placed in an incubation cabinet at approximately 20° C. and a relative atmospheric humidity of 96%. The test is evaluated 7 days after the inoculation. Under these conditions, good (at least 70%) to total protection is observed at a dose of 500 ppm with the following compounds 110, 143, 160, 175, 176, 178, 179, 180, 186, 187, 189, 192, 196, 198, 203, 204, 205, 209, 210, 212, 214, 215 and 652.
# [3] = HPLC reversed-phase C 18, method A: 43° C., 0.1% aqueous phosphoric acid, acetonitrile
# [4] = LogP method A: HPLC reversed-phase C 18, 43° C., 0.1% aqueous phosphoric acid / acetonitrile
Compound,pest or weed control at 100 ppm (Podosphaera leucotricha) [%],pest or weed control at 1000 ppm [1] [%],pest or weed control at 500 ppm (Alternaria solani) [%],"chromatographic logP [2, 3]",also measured
Cn1nc(C(F)F)c(C(=O)N(C2CC2)S(=O)(=O)c2cccc(O)c2O)c1F [Compound 104],≥ 70,≥ 70,,,"pest or weed control at 500 ppm (Pyrenophora teres): ≥ 70%; pest or weed control at 500 ppm (Puccinia recondita): ≥ 70%; chromatographic logP ([2]; HPLC reversed-phase C 18, method B: 40° C., 0.1% aqueous formic acid and acetonitrile): 3.2"
Cc1nn(C)c(F)c1C(=O)N(C1CC1)S(=O)(=O)c1cccc(O)c1 [Compound 176],≥ 70,,≥ 70,2.82,
Cc1nn(C)c(F)c1C(=O)N(C1CC1)S(=O)(=O)c1cccc(C(F)(F)F)c1 [Compound 177],≥ 70,≥ 70,,3.03,
Cc1nn(C)c(F)c1C(=O)N(C1CC1)S(=O)(=O)c1ccc(O)c(O)c1 [Compound 178],,≥ 70,≥ 70,3.35,
Cc1nn(C)c(F)c1C(=O)N(C1CC1)S(=O)(=O)c1ccc(F)cc1 [Compound 179],,,≥ 70,2.46,
Cc1nn(C)c(F)c1C(=O)N(C1CC1)S(=O)(=O)c1ccccc1O [Compound 180],≥ 70,,≥ 70,2.34,pest or weed control at 500 ppm (Pyrenophora teres): ≥ 70%
Cc1nn(C)c(F)c1C(=O)N(C1CC1)S(=O)(=O)c1ccc(O)cc1O [Compound 186],≥ 70,≥ 70,≥ 70,2.94,
Cc1nn(C)c(F)c1C(=O)N(C1CC1)S(=O)(=O)c1ccc(Oc2ccccc2)cc1 [Compound 187],≥ 70,,≥ 70,3.42,
Cc1cc(C)c(S(=O)(=O)N(C(=O)c2c(C)nn(C)c2F)C2CC2)c(C)c1 [Compound 189],,,≥ 70,3.05,
Cc1nn(C)c(F)c1C(=O)N(C1CC1)S(=O)(=O)c1ccc(C(C)(C)C)cc1 [Compound 192],≥ 70,≥ 70,≥ 70,3.55,
Cc1nn(C)c(F)c1C(=O)N(C1CC1)S(=O)(=O)c1ccc(O)c(C(F)(F)F)c1 [Compound 194],≥ 70,≥ 70,,3.5,
Cc1ccccc1S(=O)(=O)N(C(=O)c1c(C)nn(C)c1F)C1CC1 [Compound 196],≥ 70,,≥ 70,2.43,
Cc1ccc(C)c(S(=O)(=O)N(C(=O)c2c(C)nn(C)c2F)C2CC2)c1 [Compound 198],≥ 70,,≥ 70,2.78,
Cc1nn(C)c(F)c1C(=O)N(C1CC1)S(=O)(=O)c1ccccc1OC(F)(F)F [Compound 203],≥ 70,≥ 70,≥ 70,2.75,
Cc1nn(C)c(F)c1C(=O)N(C1CC1)S(=O)(=O)c1ccccc1Br [Compound 204],≥ 70,≥ 70,≥ 70,2.37,
Cc1nn(C)c(F)c1C(=O)N(C1CC1)S(=O)(=O)c1ccccc1F [Compound 205],≥ 70,≥ 70,≥ 70,2.25,
Cc1nn(C)c(F)c1C(=O)N(C1CC1)S(=O)(=O)c1ccccc1C(F)(F)F [Compound 207],≥ 70,≥ 70,,2.6,
Cc1nn(C)c(F)c1C(=O)N(C1CC1)S(=O)(=O)c1ccc(-c2ccccc2)cc1 [Compound 209],≥ 70,,≥ 70,3.39,
Cc1nn(C)c(F)c1C(=O)N(C1CC1)S(=O)(=O)c1ccc(O)c(O)c1O [Compound 212],≥ 70,≥ 70,≥ 70,3.35,
Cc1nn(C)c(F)c1C(=O)N(C1CC1)S(=O)(=O)c1ccc(C(F)(F)F)cc1O [Compound 213],≥ 70,≥ 70,,3.19,
Cc1nn(C)cc1C(=O)N(C1CC1)S(=O)(=O)c1ccccc1O [Compound 214],,,≥ 70,,"LogP [2, 3]: 2.31"
Cc1nn(C)c(C)c1C(=O)N(C1CC1)S(=O)(=O)c1ccccc1O [Compound 215],,,≥ 70,2.17,
Cc1nn(C)c(F)c1C(=O)N(C1CC1)S(=O)(=O)c1cc(O)sc1O [Compound 435],,≥ 70,,,"chromatographic logP [2, 4]: 3.16"
CC1=C(C(=O)N(C2CC2)S(=O)(=O)c2ccccc2O)OCCS1 [Compound 652],,,≥ 70,,"chromatographic logP [2, 4]: 2.78"
